Like-named read-outs stand apart in the source and are kept apart here.
Legend:
[1] = target: T1, pig synovial collagenase (Sus scrofa, UniProt P21692); test: Collagenase assay: degradation of type I collagen (SDS-PAGE/densitometry or spectrophotometric); assay type: biochemical
T1 construct: pig synovial collagenase (0.04 μg protein); from tissue; host or cells: pig synovium (only from the enzyme's name; preparation not described)
T1 sequence (P21692 100-469): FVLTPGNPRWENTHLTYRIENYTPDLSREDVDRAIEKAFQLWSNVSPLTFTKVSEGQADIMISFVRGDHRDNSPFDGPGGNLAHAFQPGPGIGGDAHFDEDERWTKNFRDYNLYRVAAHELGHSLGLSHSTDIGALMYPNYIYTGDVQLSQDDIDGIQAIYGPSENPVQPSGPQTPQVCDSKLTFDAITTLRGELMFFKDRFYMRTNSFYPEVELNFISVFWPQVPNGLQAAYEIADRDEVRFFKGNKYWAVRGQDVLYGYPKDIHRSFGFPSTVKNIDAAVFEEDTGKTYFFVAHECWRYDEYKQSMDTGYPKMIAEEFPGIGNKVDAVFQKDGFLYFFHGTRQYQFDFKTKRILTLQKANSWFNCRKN
Procedure: Collagenase activity was determined after electrophoretic separation of degraded from undegraded type I collagen by polyacrylamide gel electrophoresis and densitometry as follows.
Acid-soluble calf skin collagen (0.25 mg/ml, approximately […]) was incubated at 35° C. for 1 hr with pig synovial collagenase (0.04 μg protein) in 0.05M tris-HCL, 0.2M NaCl, 0.25M glucose, 5 mM CaCl2, 10% dimethyl sulfoxide, pH 7.6 in a total reaction volume of 20 μL. Inhibitors were dissolved in dimethyl sulfoxide and the sulfhydryl titer determined in stock solutions immediately prior to use by the colorimetric procedure of Ellman [Ellman, G. L., Arch. Biochem. Biophys. 82: 70-77 (1959)]. At the end of the reaction period, the reactions were stopped by placing on ice and 20 μL sample dilution buffer was added [Laemmli, U. K., Nature (London) 227: 680-685 (1970)]. The samples were then placed in a boiling water bath for 2-5 minutes after which collagen degradation products were separated from undegraded collagen by sodium dodecyl sulfate-polyacrylamide electrophoresis according to the procedure of Laemmli [1970]. The electrophoretograms were fixed in isopropanol/acetic acid/water (100:40:300) and stained with 1% Coomassie Blue R-250. The percentage of collagen alpha chains degraded was estimated by scanning densitometry and integration of peak areas [Welgus et al., J. Biol. Chem. 256: 9511-9515 (1981)].
A spectrophotometric method was also utilized in some cases to determine collagenase activity [Lindy, S. et al., European J. Biochem. 156: 1-4 (1986)]. The conditions were the same as given above except that the reaction volume was 200 μL, the temperature was 37° C. and the enzyme concentration was 1.2 μg protein/ml. Stock solutions of inhibitors were prepared in 1 mM acetic acid in ethanol and the sulfhydryl titer determined colorimetrically by the method of Ellman […]. The reaction progress was monitored for 6-10 minutes by following the increase in absorbance at 227 nm that accompanies denaturation of the collagen fragments. Initial rates of collagen degradation were determined from the linear portion of the progress curves.

[2] = target: T2, Collagenase, purified from sodium hydroxide burned rabbit corneal tissue (Oryctolagus cuniculus, UniProt P13943); test: Qualitative SDS-PAGE assay of collagen degradation by corneal collagenase; assay type: biochemical
T2 sequence (P13943 99-468): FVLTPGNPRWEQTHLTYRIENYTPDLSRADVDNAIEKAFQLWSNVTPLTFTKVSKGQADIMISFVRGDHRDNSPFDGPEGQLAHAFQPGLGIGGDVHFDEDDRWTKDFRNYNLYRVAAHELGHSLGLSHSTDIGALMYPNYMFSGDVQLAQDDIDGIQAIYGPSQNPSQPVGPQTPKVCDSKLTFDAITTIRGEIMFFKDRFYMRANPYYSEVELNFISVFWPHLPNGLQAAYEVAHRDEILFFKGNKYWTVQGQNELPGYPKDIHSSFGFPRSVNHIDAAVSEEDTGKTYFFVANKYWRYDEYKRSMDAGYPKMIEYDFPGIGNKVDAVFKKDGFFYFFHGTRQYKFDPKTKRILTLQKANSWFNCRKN
Procedure: Collagenase, purified from sodium hydroxide burned rabbit corneal tissue, was placed in a reaction mixture containing Type I collagen (0.4 mg/ml), 0.005M Tris-HCl, 0.2M NaCl, 0.25M glucose, pH 7.7. Reactions were initiated by adding the enzyme to the reaction mixture; inhibitory potency was estimated by running separate reaction mixtures in which the peptide HSCH2 CH[CH2 CH(CH3)2 ]--CO-Phe-Ala-NH2, made in accordance with Example 2, was added in varying concentrations to the mixture and incubated for 3 hours at 30° C. Other compounds were assayed for inhibitory potency in a similar manner. Reaction mixtures were quenched by placing them on ice and then adding one volume of sample dilution buffer followed by boiling the mixtures in a water bath for 5 minutes. Collagen degradation products were resolved from undegraded collagen by sodium dodecylsulfate-polyacylamide gel electrophoresis (SDS-PAGE) followed by staining with Coomassie Blue R-250. The SDS-PAGE assay was used to qualitatively evaluate the inhibitory capacity of the compounds tested. An estimate of inhibitory potency was then noted by visualizing the concentration range which produced 50% inhibition of collagen degradation.
The results of this qualitative assay are expressed as an IC50 range (Table II). For example, doxycyline's IC50 is 0.2 to 1.0 mM. That is, a doxycycline concentration of 0.2 to 1.0 mM is required to obtain a 50% inhibition of collagen degradation. These estimated ranges were then used to predict the inhibitor concentrations tested in the quantitative analysis detailed below.

[3] = target: T3, PA elastase (Pseudomonas aeruginosa, UniProt P14756); test: biochemical
T3 construct: made in house; host or cells: native secreted enzyme from a virulent Pseudomonas aeruginosa strain grown on tryptone glucose extract agar
T3 sequence (P14756 198-498): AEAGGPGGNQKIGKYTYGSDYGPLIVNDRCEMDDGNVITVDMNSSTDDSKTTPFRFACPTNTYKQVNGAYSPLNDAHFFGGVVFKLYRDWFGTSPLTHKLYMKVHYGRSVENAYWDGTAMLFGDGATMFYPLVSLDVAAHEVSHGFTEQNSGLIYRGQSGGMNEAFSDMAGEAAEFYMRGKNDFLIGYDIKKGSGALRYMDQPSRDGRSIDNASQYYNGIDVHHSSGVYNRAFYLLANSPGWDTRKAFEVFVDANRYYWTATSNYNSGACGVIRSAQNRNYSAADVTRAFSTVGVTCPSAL
Procedure: Pseudomonas aeruginosa proteases were obtained by overnight incubation of virulent strain of Pseudomonas aeruginosa (PA) on tryptone glucose extract agar.
The PA elastase was tested in accordance with the procedures analogous to those conducted on purified collagenase in Example 5.
Example 7 was repeated using three corneal ulceration treatments of the prior art: Tetracycline, minocycline and doxycycline.

[4] = target: T2, Collagenase, purified from sodium hydroxide burned rabbit corneal tissue; test: Quantitative fluorometric assay with fluorogenic Dnp-peptide substrate; assay type: biochemical; details: Dnp-substrate 20 uM, 37° C. for 2 to 3 minutes
Procedure: Quantitative determination of collagenase activity was carried out with a fluorogenic peptide substrate, Dnp-Pro-Leu-Gly-Leu-Trp-Ala-D-Arg-NH2,which collagenase cleaves to produce Dnp-Pro-Leu-Gly and Leu-Trp-Ala-D-Arg-NH2. The rate of production of the tetrapeptide was monitored with an AMINCO-BOWMAN® spectrofluorometer (excitation wavelength of 280 nm and emission wavelength of 346 nm). This test was repeated using high performance liquid chromatography (HPLC) to separate and detect the two cleaved collagenase products.
Reaction mixtures for both the fluorometric and HPLC assays contained 0.05M Tris-HCl, 0.2M NaCl, 10 mM CaCl2 and Dnp-substrate 20 uM, pH 7.7. The peptide of Example 2 was added to the assay mixtures at varying concentrations. The incubation conditions differed between the two assays; the fluorometric reaction mixtures were incubated at 37° C. for 2 to 3 minutes whereas the HPLC reaction mixtures were incubated at 37° C. for 3 hours. This was necessary because the HPLC assay was not as sensitive in detecting the substrate cleavage products as the fluorometric assay. IC50 values were interpolated from plots of log[Ao /Ai)-1[ vs. log[Inhibitor], where Ao is the activity observed in the absence of inhibitor and Ai is the activity observed in the presence of inhibitor at concentration i.

[5] = mixture containing approximately equal amounts of the two diastereomers, read-out: IC50 (uM), diastereomers not resolved
[6] = SDS-PAGE, visual estimate, Type I collagen 0.4 mg/ml, 3 hours at 30° C.
[7] = fast-eluting diastereomer (C18 reversed phase), approximate concentration giving 50% inhibition of collagen degradation, read-out: IC50 (uM) Fast Isomer
[8] = slow-eluting diastereomer (C18 reversed phase), approximate concentration giving 50% inhibition of collagen degradation, read-out: IC50 (uM) Slow Isomer

IC50 [1, 5]	SMILES	Estimated IC50 Range [2, 6]	IC50 [3]	other results
4 µM	CCOC(=O)[C@H](C)NC(=O)[C@H](CCCCNC(=O)OC(C)(C)C)NC(=O)C(CS)CC(C)C (some centres unmarked)			
	CC(=O)N[C@@H](CS)C(=O)O [Acetylcysteine, acetylcysteine]	10000 to 30000 µM		
	CC(C)CC(CS)C(=O)N[C@@H](Cc1ccccc1)C(=O)N[C@@H](C)C(N)=O (stereo partly drawn) [Compound 3, 2-[(R,S)-Mercaptomethyl]-4-methylpentanoyl-L-phenylalanyl-L-alanine amide]		0.3 µM	IC50 [1, 7]: 0.3 µM; IC50 [1, 8]: 0.04 µM
0.05 µM	CC(C)CC(CS)C(=O)N[C@@H](Cc1c[nH]c2ccccc12)C(=O)N[C@@H](C)C(N)=O (some centres unmarked) [Compound 4, HSCH2 CH[CH2 CH(CH3)2]COTrpAlaNH2]			
	CC(C)CC(CS)C(=O)N[C@@H](Cc1ccccc1)C(=O)N[C@@H](CC(C)C)C(N)=O (stereo partly drawn) [Compound 5, 2-[(R,S)-Mercaptomethyl]-4-methylpentanoyl-L-phenylalanyl-L-leucine amide]			IC50 [1, 7]: 10 µM; IC50 [1, 8]: 4 µM
2 µM	CC(C)CC(CS)C(=O)N[C@@H](Cc1ccccc1)C(=O)N[C@@H](Cc1ccccc1)C(N)=O (some centres unmarked) [Compound 6, HSCH2 CH[CH2 CH(CH3)2]COPhePheNH2]			
0.03 µM	CC(C)CC(CS)C(=O)N[C@@H](Cc1ccc2ccccc2c1)C(=O)N[C@@H](C)C(N)=O (some centres unmarked) [Compound 7, HSCH2 CH[CH2 CH(CH3)2]CCNalAlaNH2]			
	N[C@@H](CS)C(=O)O [Cysteine, cysteine]	3000 to 10000 µM		
	C[C@H]1c2cccc(O)c2C(=O)C2=C(O)[C@]3(O)C(=O)C(C(N)=O)=C(O)[C@@H](N(C)C)[C@@H]3[C@@H](O)[C@@H]21 [Doxycycline, doxycycline]	200 to 1000 µM	110 µM	
	CN(C)c1ccc(O)c2c1C[C@H]1C[C@H]3[C@H](N(C)C)C(O)=C(C(N)=O)C(=O)[C@@]3(O)C(O)=C1C2=O [Minocycline, minocycline]		260 µM	
	O=C1O[C@H]([C@@H](O)CO)C([O-])=C1O.[Na+] [Sodium Ascorbate]			Estimated IC50 Range (mM) [2, 6]: No Inhibition
	O=C([O-])CC(O)(CC(=O)[O-])C(=O)[O-].[Na+].[Na+].[Na+] [Sodium Citrate, sodium citrate]	10000 to 30000 µM		IC50 [4]: 45000 µM; reversal of inhibition by excess Ca++ ([2]; SDS-PAGE assay, footnote to Table II): Reversed by addition of excess Ca++
	CN(C)[C@@H]1C(O)=C(C(N)=O)C(=O)[C@@]2(O)C(O)=C3C(=O)c4c(O)cccc4[C@@](C)(O)[C@H]3C[C@@H]12 [Tetracycline, tetracycline]	1000 to 2000 µM	660 µM	
